# According to ChEMBL document CHEMBL4184140, “Expanding the tetrahydroquinoline pharmacophore” (Bioorg Med Chem Lett, 2017):
# Activity calls are given as the source filed them. The rule behind the calls is not given here.
# System: IMR-32
# Assay: Neurotrophic activity in human IMR32 cells assessed as increase in NGF mRNA level at 10 uM by RT-PCR analysis
# Type: functional, cell-based
# Conditions: not given
row,SMILES,Activity
1,CC(=O)N1c2cc([N+](=O)[O-])ccc2[C@H]2C=CC[C@H]2[C@H]1c1ccccc1,Active
2,CC(=O)N1c2ccccc2[C@H]2[C@@H](O)[C@H](N=[N+]=[N-])C[C@H]2[C@H]1c1ccccc1,Active

# System: A549
# Assay: Antiproliferative activity against human A549 cells
# Type: functional, cell-based
# Conditions: not given
row,SMILES,Activity
1,CC(=O)N1c2ccccc2[C@H]2C=CC[C@H]2[C@H]1c1ccccc1,inactive
2,CC(=O)N1c2ccccc2[C@H]2[C@@H](O)[C@@H](O)C[C@H]2[C@H]1c1ccccc1,inactive
3,Brc1ccc2c(c1)[C@H]1C=CC[C@H]1[C@@H](c1ccccc1)N2,inactive
4,O[C@@H]1[C@@H]2c3ccccc3N[C@H](c3ccccc3)[C@@H]2C[C@@H]1O,inactive
5,O[C@@H]1[C@@H]2c3ccccc3N[C@H](c3ccc(Cl)cc3)[C@@H]2C[C@@H]1O,inactive
6,CC(=O)N1c2cc([N+](=O)[O-])ccc2[C@H]2C=CC[C@H]2[C@H]1c1ccccc1,inactive
7,CC(=O)N1c2ccccc2[C@H]2[C@@H](O)[C@H](N=[N+]=[N-])C[C@H]2[C@H]1c1ccccc1,inactive

# System: IMR-32
# Assay: Neurotrophic activity in human IMR32 cells assessed as increase in NGF protein level at 10 uM by Western blot method
# Type: functional, cell-based
# Conditions: not given
row,SMILES,Activity
1,CC(=O)N1c2cc([N+](=O)[O-])ccc2[C@H]2C=CC[C@H]2[C@H]1c1ccccc1,Active
2,CC(=O)N1c2ccccc2[C@H]2[C@@H](O)[C@H](N=[N+]=[N-])C[C@H]2[C@H]1c1ccccc1,Active

# System: IMR-32
# Assay: Neurotrophic activity in human IMR32 cells assessed as appearance of neurites at 1 to 10 uM after 96 hrs by bright field microscopic analysis
# Type: functional, cell-based
# Conditions: not given
row,SMILES,Activity
1,CC(=O)N1c2ccccc2[C@H]2C=CC[C@H]2[C@H]1c1ccccc1,inactive
2,CC(=O)N1c2ccccc2[C@H]2[C@@H](O)[C@@H](O)C[C@H]2[C@H]1c1ccccc1,inactive
3,Brc1ccc2c(c1)[C@H]1C=CC[C@H]1[C@@H](c1ccccc1)N2,inactive
4,O[C@@H]1[C@@H]2c3ccccc3N[C@H](c3ccccc3)[C@@H]2C[C@@H]1O,inactive
5,O[C@@H]1[C@@H]2c3ccccc3N[C@H](c3ccc(Cl)cc3)[C@@H]2C[C@@H]1O,inactive
6,CC(=O)N1c2cc([N+](=O)[O-])ccc2[C@H]2C=CC[C@H]2[C@H]1c1ccccc1,Active

# System: IMR-32
# Assay: Neurotrophic activity in human IMR32 cells assessed as increase in BDNF mRNA level at 10 uM by RT-PCR analysis
# Type: functional, cell-based
# Conditions: not given
row,SMILES,Activity
1,CC(=O)N1c2cc([N+](=O)[O-])ccc2[C@H]2C=CC[C@H]2[C@H]1c1ccccc1,Active
2,CC(=O)N1c2ccccc2[C@H]2[C@@H](O)[C@H](N=[N+]=[N-])C[C@H]2[C@H]1c1ccccc1,Active

# System: IMR-32
# Assay: Neurotrophic activity in human IMR32 cells assessed as induction of differentiation at 10 uM after 96 hrs by bright filed microscopic method
# Type: functional, cell-based
# Conditions: not given
row,SMILES,Activity
1,CC(=O)N1c2ccccc2[C@H]2[C@@H](O)[C@H](N=[N+]=[N-])C[C@H]2[C@H]1c1ccccc1,Active

# System: DU-145
# Assay: Antiproliferative activity against human DU145 cells
# Type: functional, cell-based
# Conditions: not given
row,SMILES,Activity
1,CC(=O)N1c2ccccc2[C@H]2C=CC[C@H]2[C@H]1c1ccccc1,inactive
2,CC(=O)N1c2ccccc2[C@H]2[C@@H](O)[C@@H](O)C[C@H]2[C@H]1c1ccccc1,inactive
3,Brc1ccc2c(c1)[C@H]1C=CC[C@H]1[C@@H](c1ccccc1)N2,inactive
4,O[C@@H]1[C@@H]2c3ccccc3N[C@H](c3ccccc3)[C@@H]2C[C@@H]1O,inactive
5,O[C@@H]1[C@@H]2c3ccccc3N[C@H](c3ccc(Cl)cc3)[C@@H]2C[C@@H]1O,inactive
6,CC(=O)N1c2cc([N+](=O)[O-])ccc2[C@H]2C=CC[C@H]2[C@H]1c1ccccc1,inactive
7,CC(=O)N1c2ccccc2[C@H]2[C@@H](O)[C@H](N=[N+]=[N-])C[C@H]2[C@H]1c1ccccc1,inactive

# System: IMR-32
# Assay: Cytotoxicity against human IMR32 cells after 48 hrs by SRB assay
# Type: cell-based
# Conditions: IMR-32, 48 h
row,SMILES,IC50 [µM]
1,CC(=O)N1c2ccccc2[C@H]2C=CC[C@H]2[C@H]1c1ccccc1,61.6
2,CC(=O)N1c2ccccc2[C@H]2[C@@H](O)[C@@H](O)C[C@H]2[C@H]1c1ccccc1,> 100
3,Brc1ccc2c(c1)[C@H]1C=CC[C@H]1[C@@H](c1ccccc1)N2,94.4
4,O[C@@H]1[C@@H]2c3ccccc3N[C@H](c3ccccc3)[C@@H]2C[C@@H]1O,> 100
5,O[C@@H]1[C@@H]2c3ccccc3N[C@H](c3ccc(Cl)cc3)[C@@H]2C[C@@H]1O,64.6
6,CC(=O)N1c2cc([N+](=O)[O-])ccc2[C@H]2C=CC[C@H]2[C@H]1c1ccccc1,> 100
7,CC(=O)N1c2ccccc2[C@H]2[C@@H](O)[C@H](N=[N+]=[N-])C[C@H]2[C@H]1c1ccccc1,> 100

# System: IMR-32
# Assay: Neurotrophic activity in human IMR32 cells assessed as increase in BDNF protein level at 10 uM by Western blot method
# Type: functional, cell-based
# Conditions: not given
row,SMILES,Activity
1,CC(=O)N1c2cc([N+](=O)[O-])ccc2[C@H]2C=CC[C@H]2[C@H]1c1ccccc1,Active
2,CC(=O)N1c2ccccc2[C@H]2[C@@H](O)[C@H](N=[N+]=[N-])C[C@H]2[C@H]1c1ccccc1,Active

# System: HepG2
# Assay: Antiproliferative activity against human HepG2 cells
# Type: functional, cell-based
# Conditions: not given
row,SMILES,Activity
1,CC(=O)N1c2ccccc2[C@H]2C=CC[C@H]2[C@H]1c1ccccc1,inactive
2,CC(=O)N1c2ccccc2[C@H]2[C@@H](O)[C@@H](O)C[C@H]2[C@H]1c1ccccc1,inactive
3,Brc1ccc2c(c1)[C@H]1C=CC[C@H]1[C@@H](c1ccccc1)N2,inactive
4,O[C@@H]1[C@@H]2c3ccccc3N[C@H](c3ccccc3)[C@@H]2C[C@@H]1O,inactive
5,O[C@@H]1[C@@H]2c3ccccc3N[C@H](c3ccc(Cl)cc3)[C@@H]2C[C@@H]1O,inactive
6,CC(=O)N1c2cc([N+](=O)[O-])ccc2[C@H]2C=CC[C@H]2[C@H]1c1ccccc1,inactive
7,CC(=O)N1c2ccccc2[C@H]2[C@@H](O)[C@H](N=[N+]=[N-])C[C@H]2[C@H]1c1ccccc1,inactive

# System: MCF7
# Assay: Antiproliferative activity against human MCF7 cells
# Type: functional, cell-based
# Conditions: not given
row,SMILES,Activity
1,CC(=O)N1c2ccccc2[C@H]2C=CC[C@H]2[C@H]1c1ccccc1,inactive
2,CC(=O)N1c2ccccc2[C@H]2[C@@H](O)[C@@H](O)C[C@H]2[C@H]1c1ccccc1,inactive
3,Brc1ccc2c(c1)[C@H]1C=CC[C@H]1[C@@H](c1ccccc1)N2,inactive
4,O[C@@H]1[C@@H]2c3ccccc3N[C@H](c3ccccc3)[C@@H]2C[C@@H]1O,inactive
5,O[C@@H]1[C@@H]2c3ccccc3N[C@H](c3ccc(Cl)cc3)[C@@H]2C[C@@H]1O,inactive
6,CC(=O)N1c2cc([N+](=O)[O-])ccc2[C@H]2C=CC[C@H]2[C@H]1c1ccccc1,inactive
7,CC(=O)N1c2ccccc2[C@H]2[C@@H](O)[C@H](N=[N+]=[N-])C[C@H]2[C@H]1c1ccccc1,inactive

# System: IMR-32
# Assay: Neurotrophic activity in human IMR32 cells assessed as length of neurite outgrown after 96 hrs by bright field microscopic analysis
# Type: functional, cell-based
# Conditions: not given
row,SMILES,Activity
1,CC(=O)N1c2cc([N+](=O)[O-])ccc2[C@H]2C=CC[C@H]2[C@H]1c1ccccc1,Dose-dependent effect
2,CC(=O)N1c2ccccc2[C@H]2[C@@H](O)[C@H](N=[N+]=[N-])C[C@H]2[C@H]1c1ccccc1,Dose-dependent effect
